Consider 15 compounds from ChEMBL document CHEMBL2380201, “Synthesis, biological activity and resistance to proteolytic digestion of new cyclic dermorphin/deltorphin analogues” (Eur J Med Chem, 2013).

Active and inactive are the calls of the source. No cut-off for these calls is given here. Numbered stars: 1 amine (or outer) side, 2 acyl side, 3 side chain; on linkers, the order of the positions; unused ones are H or OH. Bridge positions count the residues as written; N and C are the ends. Square brackets hold non-standard residues; d marks the D form. Peptide text beside a SMILES is read from it. ξ: configuration not given here. Orn = NCCC[C@H](N)C(=O)O; Dap = NC[C@H](N)C(=O)O; ξOrn = NCCCC(N)C(=O)O; CO = O=C([*:1])[*:2]; ξDap = NCC(N)C(=O)O Some results are limits rather than exact numbers.

Series [1] concerns Mus musculus. The experiment in a line: Antinociceptive activity in BALB/c mouse assessed as increase in paw withdrawal latency at 0.1 mg/kg, sc measured 30 mins post dose by hot plate test. The series is classed as functional, organism-based. Details: dose 0.1 mg/kg.
The subject of series [2] is Mus musculus. Description: Antinociceptive activity in BALB/c mouse assessed as increase in paw withdrawal latency at 1 mg/kg, iv measured 30 mins post dose by hot plate test. The series is classed as functional, organism-based. Details: dose 1 mg/kg.
Series [3] can be described thus: Proteolytic stability of the compound in ammonium bicarbonate buffer assessed as hydrolysis at pH 8 at 10^-4 M after 12 hrs by ESI-MS spectrophotometry in presence of chymotrypsin. The series is classed as ADME. The conditions noted are these: isolated protein, pH 8, 12 h, 100 µM.
A short description of series [4]: Proteolytic stability of the compound in ammonium bicarbonate buffer assessed as hydrolysis at pH 8 at 10^-4 M after 12 hrs by ESI-MS spectrophotometry in presence […]. It is filed as ADME. The conditions noted are these: isolated protein, pH 8, 12 h, 100 µM.
For another series, the system named is chymotrypsin. The experiment in a line: Proteolytic stability of the compound in ammonium bicarbonate buffer assessed as hydrolysis at pH 8 at 10^-4 M after 1.5 hrs by ESI-MS spectrophotometry in presence of chymotrypsin. It is filed as ADME. Particulars: read-out: Drug degradation.
The test system of series [5] is Mus musculus. The experiment in a line: Antinociceptive activity in BALB/c mouse assessed as increase in paw withdrawal latency at 1 mg/kg, ip measured 30 mins post dose by hot plate test. It is filed as functional, organism-based. Also on record: dose 1 mg/kg.
The nature of series [6]: Proteolytic stability of the compound in ammonium bicarbonate buffer assessed as intact cyclic fragment at pH 8 at 10^-4 M after 2.5 hrs by ESI-MS spectrophotometry in presence […]. It is filed as ADME. The conditions noted are these: isolated protein, pH 8, 2.5 h, 100 µM.
Series [7] can be described thus: Proteolytic stability of the compound in ammonium bicarbonate buffer assessed as hydrolysis at pH 8 at 10^-4 M after 2.5 hrs by ESI-MS spectrophotometry in presence […]. The conditions noted are these: isolated protein, pH 8, 2.5 h, 100 µM. The series is classed as ADME.
The test system of series [8] is Mus musculus. The experiment in a line: Antinociceptive activity in BALB/c mouse at 4 mg/kg, iv up to 120 mins by tail flick test. The series is classed as functional, organism-based. Also on record: dose 4 mg/kg.
The test system of series [9] is Mus musculus. The experiment in a line: Antinociceptive activity in BALB/c mouse at 2 mg/kg, iv measured 30 mins post dose by tail flick test relative to vehicle-treated control. The series is classed as functional.
For series [10], the system named is Mus musculus. Description: Antinociceptive activity in BALB/c mouse at 1 mg/kg, iv measured 30 to 90 mins post dose by tail flick test relative to vehicle-treated control. The series is classed as functional.
Series [11] deals with Mus musculus. The experiment in a line: Antinociceptive activity in BALB/c mouse at 0.5 mg/kg, iv measured 30 to 90 mins post dose by tail flick test relative to vehicle-treated control. It is filed as functional.
The subject of series [12] is Mus musculus. Description: Antinociceptive activity in iv dosed BALB/c mouse measured 15 to 180 mins post dose by tail flick test. The series is classed as functional, organism-based.
Series [13] concerns Mus musculus. Description: Antinociceptive activity in BALB/c mouse at 2 mg/kg, iv measured 15 to 180 mins post dose by tail flick test. The series is classed as functional, organism-based. Details: dose 2 mg/kg.
Series [14] in a line: Proteolytic stability of the compound in ammonium bicarbonate buffer assessed as hydrolysis at pH 8 at 10^-4 M after 20 mins to 12 hrs by ESI-MS spectrophotometry in presence of chymotrypsin. The series is classed as ADME. The conditions noted are these: isolated protein, pH 8, 100 µM.
The nature of series [15]: Proteolytic stability of the compound in ammonium bicarbonate buffer assessed as hydrolysis at pH 8 at 10^-4 M after 20 mins to 12 hrs by ESI-MS spectrophotometry in presence […]. The series is classed as ADME. Particulars: isolated protein, pH 8, 100 µM.

On to `NCCNC(=O)[C@@H]1CNC(=O)NCCCC[C@@H](NC(=O)[C@@H](N)Cc2ccc(O)cc2)C(=O)N[C@@H](Cc2ccccc2)C(=O)N1`, for which the outcome in the series with Mus musculus [1], with Mus musculus [2] and in the series with Mus musculus [5] was inactive. In addition, the Stability entry in series [3] and in series [4] was “Stable” in each case. Besides, in the series on chymotrypsin, the metabolised at 1.5 h, 100 µM is less than 1%.
For `NC(=O)NCCNC(=O)[C@@H]1CCCCNC(=O)NCCCC[C@@H](NC(=O)[C@@H](N)Cc2ccc(O)cc2)C(=O)N[C@@H](Cc2ccccc2)C(=O)N1`, the result with Mus musculus [1], in the series with Mus musculus [2] and with Mus musculus [5] was inactive. For the same compound, the Stability entry in series [3] and in series [4] was “Stable” in each case. Besides, in the series on chymotrypsin, the metabolised at 1.5 h, 100 µM is less than 1%.
For the compound `NC(=O)NCCNC(=O)[C@@H]1CCCNC(=O)NCCCC[C@@H](NC(=O)[C@@H](N)Cc2ccc(O)cc2)C(=O)N[C@@H](Cc2ccccc2)C(=O)N1`, the result in the series with Mus musculus [1], in the series on Mus musculus [2] and with Mus musculus [5] was inactive. Besides, the Stability result in [3] and in series [4] was “Stable” in each case. In the series with chymotrypsin, the metabolised at 1.5 h, 100 µM was less than 1%.
As for `CCNC(=O)[C@@H]1CCCNC(=O)NCCCC[C@@H](NC(=O)[C@@H](N)Cc2ccc(O)cc2)C(=O)N[C@@H](Cc2ccccc2)C(=O)N1`, the result in the series with Mus musculus [1], in the series with Mus musculus [2] and in the series on Mus musculus [5] was inactive. Further, the Stability entry in series [3] and in series [4] was “Stable” throughout. In addition, the metabolised at 1.5 h, 100 µM with chymotrypsin was less than 1%.
For `NC(=O)[C@@H]1CCCCNC(=O)NC[C@H](NC(=O)[C@@H](N)Cc2ccc(O)cc2)C(=O)N[C@@H](Cc2ccccc2)C(=O)N1` (H-Y[Dap]FK-NH2; linker 2-4 via CO), the Stability in series [6] is on record as 98%.
With `NC(=O)NCCNC(=O)[C@@H]1CNC(=O)NCCCC[C@@H](NC(=O)[C@@H](N)Cc2ccc(O)cc2)C(=O)N[C@@H](Cc2ccccc2)C(=O)N1`, the outcome with Mus musculus [1], in the series with Mus musculus [2] and in the series on Mus musculus [5] was inactive. Also, the Stability entry in [3] and in series [4] was “Stable” each time. Besides, the metabolised at 1.5 h, 100 µM in the series with chymotrypsin is less than 1%.
With `NC(=O)[C@@H]1CNC(=O)NCCCC[C@H](NC(=O)[C@@H](N)Cc2ccc(O)cc2)C(=O)N[C@@H](Cc2ccccc2)C(=O)N1` (H-YKF[Dap]-NH2; linker 2-4 via CO), the Stability in series [6] was found to be 98%.
`NC(=O)[C@@H]1CCCCNC(=O)NCCC[C@H](NC(=O)[C@@H](N)Cc2ccc(O)cc2)C(=O)N[C@@H](Cc2ccccc2)C(=O)N1` (H-Y[Orn]FK-NH2; linker 2-4 via CO): the Stability result in [7] is “Unstable”.
Consider `CN1CC[C@]23c4c5ccc(O)c4O[C@H]2[C@@H](O)C=C[C@H]3[C@H]1C5` [MORPHINE], for which the outcome with Mus musculus [2], with Mus musculus [10] and in the series on Mus musculus [11] was inactive. For the same compound, the result with Mus musculus [8] was Active. In addition, the MPE in the series with Mus musculus [9] is listed as 63.1%.
For the compound `NC(=O)NCCNC(=O)[C@@H]1CNC(=O)NCCC[C@@H](NC(=O)[C@@H](N)Cc2ccc(O)cc2)C(=O)N[C@@H](Cc2ccccc2)C(=O)N1`, the result in the series on Mus musculus [1], in the series on Mus musculus [2] and with Mus musculus [5] was inactive. Moreover, the Stability result in [3] and in series [4] was “Stable” throughout. Also, the metabolised at 1.5 h, 100 µM in the series with chymotrypsin was less than 1%.
As for `NC(=O)NCCNC(=O)[C@@H]1CCNC(=O)NCCCC[C@@H](NC(=O)[C@@H](N)Cc2ccc(O)cc2)C(=O)N[C@@H](Cc2ccccc2)C(=O)N1`, the result in the series with Mus musculus [1] and in the series with Mus musculus [5] was inactive. The Activity entry in the series on Mus musculus [12] was “Dose-dependent effect”. Moreover, the outcome in the series on Mus musculus [2], in the series on Mus musculus [8] and in the series on Mus musculus [13] was Active. Besides, the Stability entry in series [14] and in series [15] was “Stable” throughout. The MPE in the series on Mus musculus [10] was 54.7%; in the series with Mus musculus [11] it was 41.8%. The metabolised at 1.5 h, 100 µM in the series with chymotrypsin was less than 1%.
For the compound `NC(=O)NCCNC(=O)[C@@H]1CCNC(=O)NCCC[C@@H](NC(=O)[C@@H](N)Cc2ccc(O)cc2)C(=O)N[C@@H](Cc2ccccc2)C(=O)N1`, the result with Mus musculus [1], with Mus musculus [2] and with Mus musculus [5] was inactive. The Stability entry in series [3] and in [4] was “Stable” in each case. In addition, in the series on chymotrypsin, the metabolised at 1.5 h, 100 µM is less than 1%.
For `NC(=O)NCCNC(=O)[C@@H]1CCCNC(=O)NCCC[C@@H](NC(=O)[C@@H](N)Cc2ccc(O)cc2)C(=O)N[C@@H](Cc2ccccc2)C(=O)N1`, the outcome with Mus musculus [1], with Mus musculus [2] and in the series on Mus musculus [5] was inactive. Further, the Stability result in [3] and in series [4] was “Stable” throughout. Moreover, the metabolised at 1.5 h, 100 µM in the series on chymotrypsin is less than 1%.
Take `NC(=O)NCCNC(=O)[C@@H]1CCCCNC(=O)NCCC[C@@H](NC(=O)[C@@H](N)Cc2ccc(O)cc2)C(=O)N[C@@H](Cc2ccccc2)C(=O)N1`: the outcome in the series on Mus musculus [1], in the series on Mus musculus [2] and in the series with Mus musculus [5] was inactive. Besides, the Stability result in series [3] and in [4] was “Stable” each time. Besides, in the series on chymotrypsin, the metabolised at 1.5 h, 100 µM is less than 1%.
On to `NC(=O)C1CNC(=O)NCCCC(NC(=O)[C@@H](N)Cc2ccc(O)cc2)C(=O)N[C@@H](Cc2ccccc2)C(=O)N1` (some centres undefined) (H-Y[ξOrn]F[ξDap]-NH2; linker 2-4 via CO), for which the Stability entry in series [7] is “Unstable”.
